For this experiment, the system named is CEM cells HIV-1 protection, formazan growth assay. Description: NCI AIDS Antiviral Assay. As to conditions: for IC50: measured here: growth of uninfected CEM cells. In a few lines: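 CEM (human) cells, HIV-1 infected vs uninfected, 5-point dosing, formazan growth read-out. Retest threshold 50% protection.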

Results on 54 compounds are retold here after PubChem BioAssay AID179 (DTP/NCI, 2004).

The term EC50 denotes the concentration that produces a half-maximal response. As a reminder, the IC50 is the concentration needed to halve the response being measured. A low value points to greater potency in that assay.

Structures are written as SMILES. Calls of active or inactive are those of the source.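 Rule for the calls: active = compounds giving half or more protection of infected cells from virus-caused growth loss, again on retest; inactive = the rest.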

As to `O=C1C(=O)N(C23CC4CC(CC(C4)C2)C3)C(=S)N1c1ccccc1`, the EC50 is more than 200 µM and the IC50 is 110 µM.
For the compound `[N-]=[N+]=NC[C@H]1OCO[C@H](CN=[N+]=[N-])[C@H]2OCCOCCOc3ccccc3OCCOCCO[C@@H]21`, the EC50 is more than 200 µM and the IC50 is more than 200 µM.
For the compound `CC(C)c1ccccc1NC(=O)/C(Cl)=C1/Sc2ccccc2NC1=O`, the EC50 was more than 10 µM and the IC50 is more than 10 µM.
With `Cc1ccc(C)n1-c1ccccc1C1C=Cn2c(=O)oc3c(OC(C)C)c(OC(C)C)c(O)c1c32` (stereo not drawn), the EC50 was more than 200 µM and the IC50 was found to be 16.2 µM.
For `CCCc1cc(=O)oc2c3c(cc(OC(C)C)c12)O[C@H](C)[C@@H](C)/C3=N/O`, in that order: more than 200 µM and 3.8 µM.
For the compound `O=C(Cc1ccccc1)N/N=C(\C1=Nc2ccc([N+](=O)[O-])cc2NC1O)C(O)c1ccc([N+](=O)[O-])cc1` (stereo not drawn), the EC50 was more than 51.3 µM and the IC50 worked out at 47.9 µM.
For `O=C(NCc1ccc(Cl)cc1)c1cc2sccc2nc1C(F)(F)F`, in that order: 93.3 µM and more than 200 µM.
As to `COC(=O)C1=C(C(=O)OC)C2(C)OC1C(=O)C21CC1` (stereo not drawn), the result was inactive.
As to `CC1(C)C(C#N)C(=O)N=C(N)C1C(N)=O` (stereo not drawn), the EC50 was more than 200 µM and the IC50 was more than 200 µM.
Turning to `NC(Cc1ccccc1)C(=O)OCN1C(=O)C2C3C=CC(C2C1=O)C1C2C(=O)N(COC(=O)C(N)Cc4ccccc4)C(=O)C2C31` (stereo not drawn), the EC50 was more than 200 µM and the IC50 was 31.6 µM.
The corresponding values for `COc1ccc2nc3c4ccccc4scc-3c2c1` are more than 200 µM and 0.295 µM.
As to `CCOC(=O)/C(=C1/Nc2ccccc2S1)c1ncnc2nc[nH]c12`, the outcome was inactive.
For the compound `CCOC(=O)C(CCCCn1cnc2ncnc(Cl)c21)(NC(C)=O)C(=O)OCC`, the result was inactive.
Regarding `Nc1nc(=O)n(C2CC(O)C(CO)O2)c2nc(-c3ccc(-c4ccccc4)cc3)cnc12` (stereo not drawn), the EC50 was more than 200 µM and the half-maximal inhibitory concentration (IC50) was more than 200 µM.
For `CC1CCc2ccccc2O1` (stereo not drawn), the EC50 is more than 200 µM and the IC50 is more than 200 µM.
In the case of `Cc1nc(Cc2n[nH]c(C)n2)n[nH]1`, the EC50 was more than 200 µM and the IC50 is more than 200 µM.
`O=C1Nc2cnc(Cl)nc2Nc2ccc(Cl)cc21`: the EC50 was 123 µM and the IC50 is more than 200 µM.
The corresponding values for `Cc1ccc(S)c(C(O)(C(F)(F)F)C(F)(F)F)c1` are more than 200 µM and 12 µM.
For the compound `N#C/C(=C\NC(N)=S)c1nc2ccccc2s1`, the outcome was inactive.
`Brc1ccccc1C1SCc2nc3ccccc3n21` (stereo not drawn): the result was inactive.
In the case of `COC(=O)Cc1c2c3n(c(=O)c1-n1[nH]c(=O)n(-c4ccc(Cl)cc4)c1=O)CCN3CCC2`, the EC50 was more than 200 µM and the IC50 is more than 200 µM.
As for `CC(=O)N=C(N=Nc1c(O)[nH]c2ccc(C)cc12)NC(C)=O`, the EC50 is more than 200 µM and the IC50 came out at 148 µM.
`COc1ccc(Cn2nc(OCc3ccccn3)c3cc([N+](=O)[O-])ccc32)cc1`: the EC50 is more than 200 µM and the IC50 was more than 200 µM.
As for `Cc1ccc2c(c1)C(c1ccccc1)C1COC(=O)C1O2` (stereo not drawn), the EC50 is more than 93.3 µM and the 50% inhibitory concentration (IC50) stood at 5.25 µM.
The corresponding values for `CC(C#N)NCc1ccc(C(C)NC(C)C#N)cc1` (stereo not drawn) are more than 200 µM and more than 200 µM.
On to `CN=C1N[N+]2=CCSCC2(C)S1` (stereo not drawn), for which the result was inactive.
For the compound `CSc1ccc(C(=O)C(=O)c2ccc(SC)s2)s1`, the EC50 was more than 200 µM and the IC50 is 155 µM.
`CCOc1ccc(/C=C2/C(=O)N=C(N)N=C2N)cc1OCC`: the result was inactive.
As to `C/C(=N\Nc1ncnc2ccccc12)c1ccccn1`, the EC50 is more than 0.2 µM and the IC50 came out at 0.0257 µM.
The corresponding values for `COC(=O)C1C2C(=O)NC(=O)C2C(c2ccc(-c3ccccc3)cc2)N1C1CCCCC1` (stereo not drawn) are more than 135 µM and 19.1 µM.
For `COc1ccc(CCN2C(=O)c3cccc4c(Br)ccc(c34)C2=O)cc1`, in that order: more than 200 µM and 105 µM.
For `N/C(CSCCSC/C(N)=N/O)=N\O`, in that order: more than 200 µM and more than 200 µM.
`CCSC1=N/C(=C\c2ccco2)C(=O)N1`: the EC50 was more than 200 µM and the IC50 is more than 200 µM.
Take `O=C1CCCCCCCCCCC1CN1CCCC1` (stereo not drawn): the result was inactive.
Take `CC(=O)CC(=O)/C=C/c1cccs1`: the EC50 was more than 257 µM and the IC50 worked out at 178 µM.
For `O=C1c2ccccc2N2Oc3ccccc3C12c1ccccc1` (stereo not drawn), in that order: more than 45.7 µM and more than 45.7 µM.
On to `O=C(/C=C/c1ccc(O)c(O)c1)OCc1ccccc1`, for which the concentration for a half-maximal effect (EC50) was more than 12 µM and the IC50 turned out to be 11.2 µM.
In the case of `O=C1CCC2(c3ccc(F)cc3)Nc3ccccc3N12` (stereo not drawn), the result was inactive.
As for `CCOC(=O)c1c(NC(=S)Nc2ccccc2)sc2c1CCN(C)C2`, the EC50 was more than 200 µM and the IC50 is more than 200 µM.
Turning to `CCOC(=O)C1(c2ccccc2)CCNC(=O)CC1` (stereo not drawn), the EC50 is more than 955 µM and the IC50 is more than 955 µM.
On to `c1cncc(C2c3[nH]c4ccccc4c3CCN2CCCN2CCCCC2)c1` (stereo not drawn), for which the EC50 is more than 3.89 µM and the IC50 is more than 3.89 µM.
As to `S=P1(Oc2ccccc2)NNP2(=NP(N3CC3)(N3CC3)=NP(N3CC3)(N3CC3)=N2)NN1` (stereo not drawn), the EC50 is more than 50.1 µM and the IC50 is 5.13 µM.
`CC1=NNC(=O)C1C1C=C(c2c[nH]c3ccccc23)OC1=O` (stereo not drawn): the EC50 was more than 200 µM and the IC50 was 102 µM.
For `CC(C)CCCC(C)[C@H]1CCC2[C@@H]1CC[C@@H]1[C@@]3(C)CC[C@H](CCC=C(c4cc(Cl)c(OCC(=O)O)c(C(=O)O)c4)c4cc(Cl)c(OCC(=O)O)c(C(=O)O)c4)C[C@@H]3CC[C@@]21C` (stereo partly drawn), in that order: more than 200 µM and 1.7 µM.
For `COc1ccc(C(OCC2OC(n3ccc(NC(=O)c4ccccc4)nc3=O)CC2OP2(=S)SCCS2)(c2ccccc2)c2ccc(OC)cc2)cc1` (stereo not drawn), in that order: more than 100 µM and 44.7 µM.
With `O=[N+]([O-])C1C=Nc2ccccc2N=C1`, the EC50 was more than 200 µM and the IC50 is more than 200 µM.
In the case of `CC(C)(C)OC(=O)/N=C/c1c(O)c2ccccc2oc1=O`, the EC50 is more than 200 µM and the IC50 was 30.2 µM.
For `COC(=O)[C@]1(C)CCCC2(C)C1CC[C@H]1C=C(C)[C@H]3CCC12C3` (stereo partly drawn), in that order: more than 112 µM and more than 112 µM.
The corresponding values for `Cc1ccc2c(c1)sc1nncn12` are more than 100 µM and more than 100 µM.
Consider `CC1(C)OCN(c2ccc(S(N)(=O)=O)cc2)Cn2c1nc1ccccc12`, for which the EC50 was more than 200 µM and the IC50 was found to be 117 µM.
For `Cc1ccc2nc(-c3ccccc3)c(N=O)n2c1`, in that order: more than 200 µM and 170 µM.
The corresponding values for `COC(=O)NC1(NC(=O)OC)NC(=O)c2cc(OC)c(OC)cc2N1` are more than 200 µM and 12.9 µM.
For `c1cc2nnc1SCCSCCSCCSc1ccc(nn1)SCCSCCSCCS2`, in that order: more than 200 µM and more than 200 µM.
For the compound `O=C1CCSC2=C1SCc1sccc12`, the outcome was inactive.
